{
  "source": "patent US4140770A",
  "about": "“Benzoylethers and processes for their production” (A. Nattermann & Cie. GmbH, priority 1976, dated 1979)",
  "key": {"[1]": {"assay": "Acute toxicity (LD50 mouse)", "settings": "in vivo"}, "[2]": {"assay": "Acute toxicity (LD50 rat)", "settings": "in vivo, iv", "description": "+according to KOMLOS and PETOCZ, 20 Arzneimittel-Forschung 1338 (1970)"}, "BaCl2-spasmus": {"system": "BaCl2-spasmus", "assay": "Spasmolysis in situ of a guinea pig modified according to BROCK (against BaCl2-spasmus)", "format": "in vivo", "description": "2.2 Spasmolysis in situ of a guinea pig modified according to BROCK (against BaCl2 -spasmus)"}, "[3]": {"system": "intestine of the guinea pig (BaCl2-spasmus)", "assay": "Spasmolytic effect, MAGNUS intestine of the guinea pig (against BaCl2-spasmus)", "settings": "Cavia porcellus, read-out: ED50 spasmolytic effect", "description": "2.1 MAGNUS intestine of the guinea pig (against BaCl2 -spasmus)"}, "Effect on blood pressure": {"assay": "Effect on blood pressure", "format": "in vivo"}, "A.femoralis": {"system": "A.femoralis", "assay": "Increase in peripheral vasodilation (A.femoralis), narcotized dog, planimetric evaluation", "format": "in vivo", "quoted_text": "3.2 Increase in peripheral vasodilation (A.femoralis) in the case of the narcotized dog (with planimetric evaluation taking into account the duration of the effect)."}, "coronary": {"system": "coronary", "assay": "Increase in coronary vasodilation (Bretschneider catheter), narcotized dog, planimetric evaluation", "format": "in vivo", "description": "3.3. Increase in coronary vasodilation (Bretschneider catheter) in the case of a narcotized dog (with planimetric evaluation taking into account the duration of the effect)."}, "mouse": {"system": "mouse", "settings": "according to KOMLOS and PETOCZ (1970); cited from earlier work"}, "rat": {"system": "rat", "settings": "according to KOMLOS and PETOCZ (1970), cited from earlier work"}},
  "data": [
    {"smiles": "CCN(CC)CCOc1c(C)cc(C(=O)CC(c2ccccc2)c2ccccc2)cc1C", "note": "[BC 58, 4-[2-(N,N-diethylamino)-ethoxy]-3,5-dimethyl-β,β-diphenylpropiophenone]", "values": [
      {"measurement": "LD50", "setting": "[1]; iv, read-out: LD50 mouse i.v.", "value": 60, "unit": "mg/kg"},
      {"measurement": "LD50", "setting": "[1]; po, read-out: LD50 mouse p.o.", "value": 1900, "unit": "mg/kg"},
      {"measurement": "LD50", "setting": "[2]", "value": 54, "unit": "mg/kg"},
      {"measurement": "inhibition (spasmolysis in situ)", "setting": "BaCl2-spasmus; 5.6 mg/kg i.v.", "value": 55, "unit": "%"},
      {"measurement": "inhibition (spasmolysis in situ)", "setting": "BaCl2-spasmus; 10.0 mg/kg i.v.", "value": 67, "unit": "%"},
      {"measurement": "inhibition (spasmolysis in situ)", "setting": "BaCl2-spasmus; 17.8 mg/kg i.v.", "value": 88, "unit": "%"},
      {"measurement": "IC50", "setting": "[3]", "value": 0.044, "unit": "µg/mL"},
      {"measurement": "Effect on blood pressure", "setting": "Effect on blood pressure; 3.16 mg/kg i.v.", "value": "approx. 30 mm Hg"},
      {"measurement": "Effect on blood pressure", "setting": "Effect on blood pressure; 5.6 mg/kg i.v.", "value": "approx. 30 mm Hg"},
      {"measurement": "Effect on blood pressure", "setting": "Effect on blood pressure; 10.0 mg/kg i.v.", "value": "approx. 40 mm Hg"},
      {"measurement": "Increase in peripheral vasodilation (A.femoralis)", "setting": "A.femoralis; 3.16 mg/kg i.v.", "value": "approx. 400 ml × min"},
      {"measurement": "Increase in peripheral vasodilation (A.femoralis)", "setting": "A.femoralis; 5.6 mg/kg i.v.", "value": "approx. 800 ml × min"},
      {"measurement": "Increase in peripheral vasodilation (A.femoralis)", "setting": "A.femoralis; 10.0 mg/kg i.v.", "value": "approx. 2,200 ml × min"},
      {"measurement": "duration of the effect (peripheral vasodilation)", "setting": "A.femoralis; versus papaverine, i.v.", "value": "longer duration of the effect"},
      {"measurement": "Increase in coronary vasodilation", "setting": "coronary; 3.16 mg/kg i.v.", "value": "approx. 350 ml × min"},
      {"measurement": "Increase in coronary vasodilation", "setting": "coronary; 5.6 mg/kg i.v.", "value": "approx. 680 ml × min"}
    ]},
    {"smiles": "Cc1cc(C(=O)CC(c2ccccc2)c2ccccc2)cc(C)c1OCCN(C)C", "note": "[BC 77, 4-[2-(N,N-dimethylamino)-ethoxy]-3,5-dimethyl-β,β-diphenylpropiophenone]", "values": [
      {"measurement": "IC50", "setting": "[3]", "value": 0.79, "unit": "µg/mL"}
    ]},
    {"smiles": "Cc1cc(C(=O)CC(c2ccccc2)c2ccccc2)cc(C)c1OCCN(C(C)C)C(C)C", "note": "[BC 79, 4-[2-(N,N-diisopropylamino)-ethoxy]-3,5-dimethyl-β,β-diphenylpropiophenone]", "values": [
      {"measurement": "IC50", "setting": "[3]", "value": 0.28, "unit": "µg/mL"}
    ]},
    {"smiles": "CC[N+](C)(CC)CCOc1c(C)cc(C(=O)CC(c2ccccc2)c2ccccc2)cc1C", "note": "[BC 96 a]", "values": [
      {"measurement": "LD50", "setting": "[1]; iv, read-out: LD50 mouse i.v.", "value": 7.93, "unit": "mg/kg"},
      {"measurement": "LD50", "setting": "[1]; po, read-out: LD50 mouse p.o.", "value": 1280, "unit": "mg/kg"}
    ]},
    {"smiles": "CC[N+](CC)(CCOc1c(C)cc(C(=O)CC(c2ccccc2)c2ccccc2)cc1C)Cc1ccccc1", "note": "[BC 96 c]", "values": [
      {"measurement": "LD50", "setting": "[1]; iv, read-out: LD50 mouse i.v.", "value": "10 to 12", "unit": "mg/kg"},
      {"measurement": "LD50", "setting": "[1]; po, read-out: LD50 mouse p.o.", "value": "~2000", "unit": "mg/kg"}
    ]},
    {"smiles": "COc1ccc(Cc2nccc3cc(OC)c(OC)cc23)cc1OC", "note": "[Papaverine, reference compound]", "values": [
      {"measurement": "LD50 mouse p.o.", "setting": "mouse", "value": 343, "unit": "mg/kg"},
      {"measurement": "LD50", "setting": "[1]; iv, read-out: LD50 mouse i.v.", "value": 44, "unit": "mg/kg"},
      {"measurement": "inhibition (spasmolysis in situ)", "setting": "BaCl2-spasmus; 5.6 mg/kg i.v.", "value": 5, "unit": "%"},
      {"measurement": "inhibition (spasmolysis in situ)", "setting": "BaCl2-spasmus; 10.0 mg/kg i.v.", "value": 8, "unit": "%"},
      {"measurement": "inhibition (spasmolysis in situ)", "setting": "BaCl2-spasmus; 17.8 mg/kg i.v.", "value": 57, "unit": "%"},
      {"measurement": "IC50", "setting": "[3]", "value": 0.79, "unit": "µg/mL"},
      {"measurement": "Effect on blood pressure", "setting": "Effect on blood pressure; 3.16 mg/kg i.v.", "value": "approx. 25 mm Hg"},
      {"measurement": "Effect on blood pressure", "setting": "Effect on blood pressure; 5.6 mg/kg i.v.", "value": "approx. 35 mm Hg"},
      {"measurement": "Effect on blood pressure", "setting": "Effect on blood pressure; 10.0 mg/kg i.v.", "value": "approx. 40 mm Hg"},
      {"measurement": "LD50 rat i.v.", "setting": "rat; i.v.", "value": 18, "unit": "mg/kg"},
      {"measurement": "LD50 rat p.o.", "setting": "rat; p.o.", "value": 325, "unit": "mg/kg"},
      {"measurement": "Increase in peripheral vasodilation (A.femoralis)", "setting": "A.femoralis; 3.16 mg/kg i.v.", "value": "approx. 100 ml × min"},
      {"measurement": "Increase in peripheral vasodilation (A.femoralis)", "setting": "A.femoralis; 5.6 mg/kg i.v.", "value": "approx. 250 ml × min"},
      {"measurement": "Increase in peripheral vasodilation (A.femoralis)", "setting": "A.femoralis; 10.0 mg/kg i.v.", "value": "approx. 180 ml × min"},
      {"measurement": "Increase in coronary vasodilation", "setting": "coronary; 5.6 mg/kg i.v.", "value": "approx. 75 ml × min"}
    ]}
  ]
}
